Measurements taken from publication PMC7990037 (Nature cancer, 2020).
Counter-ions that a name gives are not always drawn.

Experiments:
4T1-luc tumors = test: Established orthotopic 4T1-luc tumor growth with IR and cGAMP; assay type: in vivo, mouse
CD14+ PBMCs = test: Stimulation of CD14+ PBMCs with extracellular cGAMP; assay type: cell-based, human; conditions: soluble extracellular cGAMP, 16 h
[1] = tested on: cGAMP exporter(s) in 293T cGAS ENPP1−/− cells; test: Intracellular and extracellular cGAMP in 293T cGAS ENPP1−/− cells; conditions: 24 hours; STF-1084 10 μM; STF-1623 2 μM; QS1 in ENPP1 null cells
[2] = Liver microsome stability, mouse; conditions: liver microsomes
[3] = target: T1, human ENPP1 transfected into 293T cGAS ENPP1−/− cells (Homo sapiens, UniProt P22413); test: cGAMP export assay in ENPP1-transfected cells; assay type: cell-based
T1 sequence (P22413 1-925): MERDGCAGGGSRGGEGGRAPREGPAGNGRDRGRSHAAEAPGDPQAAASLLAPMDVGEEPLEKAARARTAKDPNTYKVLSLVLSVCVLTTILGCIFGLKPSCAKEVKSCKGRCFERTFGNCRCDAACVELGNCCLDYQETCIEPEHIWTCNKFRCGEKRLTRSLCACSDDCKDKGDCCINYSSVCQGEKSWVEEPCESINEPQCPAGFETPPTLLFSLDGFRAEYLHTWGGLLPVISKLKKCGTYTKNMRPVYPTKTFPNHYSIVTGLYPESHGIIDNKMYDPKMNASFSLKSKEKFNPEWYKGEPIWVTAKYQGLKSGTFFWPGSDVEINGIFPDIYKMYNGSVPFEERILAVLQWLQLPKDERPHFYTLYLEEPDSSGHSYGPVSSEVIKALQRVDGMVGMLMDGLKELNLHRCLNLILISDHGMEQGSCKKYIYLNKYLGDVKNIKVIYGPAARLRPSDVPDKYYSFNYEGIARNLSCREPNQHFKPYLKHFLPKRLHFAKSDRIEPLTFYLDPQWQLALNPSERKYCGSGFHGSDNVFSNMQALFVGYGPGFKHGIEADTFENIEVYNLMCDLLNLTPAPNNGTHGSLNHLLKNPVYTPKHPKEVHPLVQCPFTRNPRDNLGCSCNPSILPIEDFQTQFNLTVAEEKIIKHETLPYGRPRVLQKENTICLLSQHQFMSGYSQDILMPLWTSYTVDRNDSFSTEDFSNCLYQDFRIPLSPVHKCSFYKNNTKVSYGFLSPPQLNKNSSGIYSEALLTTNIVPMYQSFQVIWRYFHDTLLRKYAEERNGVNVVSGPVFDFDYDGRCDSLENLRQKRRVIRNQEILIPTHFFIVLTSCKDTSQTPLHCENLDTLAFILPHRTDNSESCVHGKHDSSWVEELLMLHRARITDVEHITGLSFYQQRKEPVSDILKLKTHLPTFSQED

epithelial cells MDCK = test: MDCK permeability assay; assay type: in vitro ADME
[4] = parallel artificial membrane permeability assay; assay type: in vitro ADME; conditions: PAMPA, compared to high and low permeability controls
primary human PBMCs [5] = conditions: 200 nM cGAMP electroporated, 16 h; 50 μM STF-1084; 2 μM STF-1623
[6] = Liver microsome stability, human; conditions: liver microsomes
primary human PBMCs [7] = test: PBMC toxicity; conditions: 16 h
[8] = Pharmacokinetics of STF-1623 after subcutaneous injection; assay type: in vivo, mouse
Caco-2 monolayer = test: Caco-2 permeability assay; assay type: in vitro ADME; conditions: Caco-2, apical to basolateral, 2 hours
Panc02 tumors = test: Panc02 syngeneic subcutaneous pancreatic tumor model; assay type: in vivo, mouse; conditions: subcutaneous pump, 50 mg/kg/day
purified mouse ENPP1 = target: T2, purified mouse ENPP1 (Mus musculus, UniProt P06802); test: 32P-cGAMP degradation TLC assay; assay type: biochemical
T2 sequence (P06802 85-906 limits assumed): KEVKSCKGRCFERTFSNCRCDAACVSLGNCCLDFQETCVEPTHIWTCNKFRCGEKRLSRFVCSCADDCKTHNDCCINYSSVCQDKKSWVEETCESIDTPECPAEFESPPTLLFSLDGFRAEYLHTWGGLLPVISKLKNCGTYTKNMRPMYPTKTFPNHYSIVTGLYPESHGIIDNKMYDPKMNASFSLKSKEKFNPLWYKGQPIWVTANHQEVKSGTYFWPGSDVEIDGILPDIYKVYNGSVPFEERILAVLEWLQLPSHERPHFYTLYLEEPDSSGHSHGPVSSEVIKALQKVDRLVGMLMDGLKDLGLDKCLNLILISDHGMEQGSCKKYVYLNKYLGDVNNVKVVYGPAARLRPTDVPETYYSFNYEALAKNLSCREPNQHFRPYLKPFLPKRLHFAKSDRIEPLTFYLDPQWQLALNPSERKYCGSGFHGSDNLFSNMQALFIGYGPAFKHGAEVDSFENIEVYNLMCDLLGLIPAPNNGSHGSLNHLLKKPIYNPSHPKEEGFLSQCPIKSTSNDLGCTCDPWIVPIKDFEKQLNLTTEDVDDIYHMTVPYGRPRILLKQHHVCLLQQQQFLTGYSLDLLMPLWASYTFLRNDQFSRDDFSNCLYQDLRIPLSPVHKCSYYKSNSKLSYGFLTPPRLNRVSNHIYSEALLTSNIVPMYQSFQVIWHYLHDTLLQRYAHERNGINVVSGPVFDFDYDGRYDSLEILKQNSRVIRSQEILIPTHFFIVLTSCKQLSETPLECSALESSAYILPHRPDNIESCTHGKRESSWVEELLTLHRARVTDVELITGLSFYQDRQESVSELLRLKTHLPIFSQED

ENPP2 = ENPP2 (Homo sapiens, UniProt Q13822); test: ENPP2 inhibition assay; assay type: biochemical
[9] = Pharmacokinetics of STF-1084; conditions: in vivo
[10] = target: T3, alkaline phosphatase (ALPL) (Homo sapiens, UniProt P05186); test: ALPL inhibition assay; assay type: biochemical
T3 sequence (P05186 18-524): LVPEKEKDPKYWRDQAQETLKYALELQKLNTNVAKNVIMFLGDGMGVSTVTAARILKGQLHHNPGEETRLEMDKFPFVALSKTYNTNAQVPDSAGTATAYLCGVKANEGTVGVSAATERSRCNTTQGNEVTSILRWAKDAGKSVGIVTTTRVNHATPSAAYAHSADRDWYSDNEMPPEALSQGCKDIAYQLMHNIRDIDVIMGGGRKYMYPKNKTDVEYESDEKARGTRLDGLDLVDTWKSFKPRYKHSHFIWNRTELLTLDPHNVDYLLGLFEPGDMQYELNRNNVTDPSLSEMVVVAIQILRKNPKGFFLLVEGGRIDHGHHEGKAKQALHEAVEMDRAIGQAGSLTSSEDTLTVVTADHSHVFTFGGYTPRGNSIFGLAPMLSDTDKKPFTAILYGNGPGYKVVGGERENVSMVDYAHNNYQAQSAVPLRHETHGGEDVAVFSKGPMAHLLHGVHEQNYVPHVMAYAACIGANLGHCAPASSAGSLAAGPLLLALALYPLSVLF

4T1-luc cells = test: Extracellular cGAMP measurement in cancer cell lines; assay type: cell-based, mouse

For Nc1nc2c(ncn2[C@@H]2O[C@@H]3COP(=O)(O)O[C@H]4[C@@H](O)[C@H](n5cnc6c(N)ncnc65)O[C@@H]4COP(=O)(O)O[C@@H]2[C@@H]3O)c(=O)[nH]1 [cGAMP, 2’3’-cyclic GMP-AMP], the tumor free survival (4T1-luc tumors; Enpp1−/− 4T1-luc tumors, IR (20 Gy) + three intratumoral injections of 10 μg cGAMP) was 3/11, the survival (4T1-luc tumors; WT 4T1-luc tumors, IR (20 Gy) + three intratumoral injections of 10 μg cGAMP) was “no mice inoculated with WT tumors survived” and the “cGAMP concentration to which CD14+ PBMCs respond by upregulating IFNB1” value (CD14+ PBMCs) was “submicromolar”.

In the case of COc1cccc2c(N3CCC(CCP(=O)(O)O)CC3)ncnc12 [STF-1623, (2-(1-(8-methoxyquinazolin-4-yl)piperidin-4-yl)ethyl)phosphonic acid], the “effect on intracellular / extracellular cGAMP (cGAMP export)” value [1] is reported as “affected only extracellular cGAMP concentrations”, the half-life [2] is reported as over 2.65 h and the IC50 [3] is reported as 68 nM. The permeability category (epithelial cells MDCK) was “cell impermeable”, the permeability category [4] was “cell impermeable” and the “cytokine production (IFNB1, CXCL10 mRNA) after cGAMP electroporation” value (primary human PBMCs [5]) was “no effect on cytokine production”. The half-life [6] was over 2.65 h, the “toxicity to PBMCs” value (primary human PBMCs [7]) was “not toxic” and the concentration at 24 h ([8]; mouse, plasma, sc, 300 mg/kg) was over 100 nM. The “pharmacokinetic profile (in words)” value ([8]; systemic dosing) was “improved pharmacokinetic profile compared to STF-1084”, the permeability category (Caco-2 monolayer) was “cell impermeable” and the “tumor growth, combination with IR” value (Panc02 tumors; day 0 to 8, IR (20 Gy) on day 1) was “synergized with IR to delay tumor growth”. The “tumor growth, single agent” value (Panc02 tumors; day 0 to 8, no IR) was “delayed tumor growth as a single agent” and the Ki (purified mouse ENPP1) was 16 nM.

In the case of COc1cc2ncnc(N3CCC(CCP(=O)(O)O)CC3)c2cc1OC [STF-1084, dimethyl (2-(1-(6,7-dimethoxyquinazolin-4-yl)piperidin-4-yl)ethyl)phosphonic acid hydrogen bromide salt], the “effect on intracellular / extracellular cGAMP (cGAMP export)” value [1] is reported as “no effect on intracellular cGAMP”, the half-life [2] is reported as over 2.65 h and the permeability category (epithelial cells MDCK) is reported as “impermeable”. For the same molecule, the tumor free survival (4T1-luc tumors; IR (20 Gy) + 10 μg cGAMP + 100 μL of 1 mM STF-1084 intratumoral on day 2, 4, 7) was 1/10, the Ki (ENPP2) was 5500 nM and the permeability category [4] was “impermeable”. For the same molecule, the half-life [6] was over 2.65 h, the “toxicity to PBMCs” value (primary human PBMCs [7]; 100 μM) was “non-toxic” and the “pharmacokinetics (in words)” value [9] was “fast pharmacokinetics”. The Ki [10] was over 100000 nM, the permeability category (Caco-2 monolayer) was “impermeable” and the “extracellular cGAMP” value (4T1-luc cells; 4T1-luc, 48 hours, serum-containing media, 50 μM STF-1084) was 3,000,000 molecules/cell.

B1: mENPP1: purified soluble recombinant mouse ENPP1, cGAMP hydrolase (protein, UniProt P06802 80-906, looked up)
extracellular domain: KPSCAKEVKSCKGRCFERTFSNCRCDAACVSLGNCCLDFQETCVEPTHIWTCNKFRCGEKRLSRFVCSCADDCKTHNDCCINYSSVCQDKKSWVEETCESIDTPECPAEFESPPTLLFSLDGFRAEYLHTWGGLLPVISKLKNCGTYTKNMRPMYPTKTFPNHYSIVTGLYPESHGIIDNKMYDPKMNASFSLKSKEKFNPLWYKGQPIWVTANHQEVKSGTYFWPGSDVEIDGILPDIYKVYNGSVPFEERILAVLEWLQLPSHERPHFYTLYLEEPDSSGHSHGPVSSEVIKALQKVDRLVGMLMDGLKDLGLDKCLNLILISDHGMEQGSCKKYVYLNKYLGDVNNVKVVYGPAARLRPTDVPETYYSFNYEALAKNLSCREPNQHFRPYLKPFLPKRLHFAKSDRIEPLTFYLDPQWQLALNPSERKYCGSGFHGSDNLFSNMQALFIGYGPAFKHGAEVDSFENIEVYNLMCDLLGLIPAPNNGSHGSLNHLLKKPIYNPSHPKEEGFLSQCPIKSTSNDLGCTCDPWIVPIKDFEKQLNLTTEDVDDIYHMTVPYGRPRILLKQHHVCLLQQQQFLTGYSLDLLMPLWASYTFLRNDQFSRDDFSNCLYQDLRIPLSPVHKCSYYKSNSKLSYGFLTPPRLNRVSNHIYSEALLTSNIVPMYQSFQVIWHYLHDTLLQRYAHERNGINVVSGPVFDFDYDGRYDSLEILKQNSRVIRSQEILIPTHFFIVLTSCKQLSETPLECSALESSAYILPHRPDNIESCTHGKRESSWVEELLTLHRARVTDVELITGLSFYQDRQESVSELLRLKTHLPIFSQED
modifications: extracellular domain
In the case of B1, the “extracellular cGAMP signal” value (4T1-luc cells; 4T1-luc conditioned media incubated with 10 nM recombinant mENPP1 overnight) is reported as “abolished the cGAMP signal”.
